Measurements taken from ChEMBL document CHEMBL5291721, “A preclinical secondary pharmacology resource illuminates target-adverse drug reaction associations of marketed drugs” (Nat Commun, 2023).

Experiments:
Adenosine receptor A2a = Adenosine receptor A2a (Homo sapiens, UniProt P29274)
[1] = target: T1, Alpha-2A adrenergic receptor (Homo sapiens, UniProt P08913); type: functional, cell-based
T1 sequence (P08913 whole entry): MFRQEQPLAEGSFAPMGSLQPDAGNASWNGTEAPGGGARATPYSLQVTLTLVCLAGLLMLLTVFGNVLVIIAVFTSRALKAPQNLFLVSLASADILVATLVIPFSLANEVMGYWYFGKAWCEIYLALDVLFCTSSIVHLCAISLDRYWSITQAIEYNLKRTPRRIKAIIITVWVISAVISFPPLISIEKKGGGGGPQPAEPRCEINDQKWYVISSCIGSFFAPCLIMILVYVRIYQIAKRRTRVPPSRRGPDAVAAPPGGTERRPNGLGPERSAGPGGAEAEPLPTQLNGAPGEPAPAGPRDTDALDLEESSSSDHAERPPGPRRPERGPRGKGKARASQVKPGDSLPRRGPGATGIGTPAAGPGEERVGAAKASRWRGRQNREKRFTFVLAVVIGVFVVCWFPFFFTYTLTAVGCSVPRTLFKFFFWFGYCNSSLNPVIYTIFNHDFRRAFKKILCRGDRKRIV

Vasopressin V1a receptor = Vasopressin V1a receptor (Homo sapiens, UniProt P37288)
Chain of Vasopressin V1a receptor (P37288 whole entry): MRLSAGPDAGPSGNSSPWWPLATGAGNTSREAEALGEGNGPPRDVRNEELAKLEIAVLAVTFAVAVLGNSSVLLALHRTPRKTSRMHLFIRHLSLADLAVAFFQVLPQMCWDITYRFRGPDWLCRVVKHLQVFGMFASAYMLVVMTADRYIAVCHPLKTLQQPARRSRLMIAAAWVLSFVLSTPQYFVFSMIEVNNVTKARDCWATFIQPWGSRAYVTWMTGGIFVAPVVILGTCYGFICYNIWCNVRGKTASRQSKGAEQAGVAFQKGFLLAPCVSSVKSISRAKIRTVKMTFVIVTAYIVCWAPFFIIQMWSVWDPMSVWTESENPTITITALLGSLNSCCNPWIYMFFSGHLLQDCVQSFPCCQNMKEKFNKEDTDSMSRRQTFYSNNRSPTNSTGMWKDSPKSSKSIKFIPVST

[2] = target: T2, Cholecystokinin receptor type A (Homo sapiens, UniProt P32238)
T2 sequence (P32238 whole entry): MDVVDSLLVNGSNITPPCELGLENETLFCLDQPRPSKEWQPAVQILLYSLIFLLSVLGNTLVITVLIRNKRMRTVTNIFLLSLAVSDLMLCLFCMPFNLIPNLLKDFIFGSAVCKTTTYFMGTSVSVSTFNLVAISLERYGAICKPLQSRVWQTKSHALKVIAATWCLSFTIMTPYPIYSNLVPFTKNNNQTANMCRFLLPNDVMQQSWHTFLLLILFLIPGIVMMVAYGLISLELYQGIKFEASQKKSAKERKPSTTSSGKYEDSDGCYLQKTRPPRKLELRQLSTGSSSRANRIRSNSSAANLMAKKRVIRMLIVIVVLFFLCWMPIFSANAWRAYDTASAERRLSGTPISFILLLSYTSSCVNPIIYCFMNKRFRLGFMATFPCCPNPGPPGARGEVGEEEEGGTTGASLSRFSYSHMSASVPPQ

[3] = target: Neuronal acetylcholine receptor subunit alpha-4 (Homo sapiens, UniProt P43681)
Chain of Neuronal acetylcholine receptor subunit alpha-4 (P43681 whole entry): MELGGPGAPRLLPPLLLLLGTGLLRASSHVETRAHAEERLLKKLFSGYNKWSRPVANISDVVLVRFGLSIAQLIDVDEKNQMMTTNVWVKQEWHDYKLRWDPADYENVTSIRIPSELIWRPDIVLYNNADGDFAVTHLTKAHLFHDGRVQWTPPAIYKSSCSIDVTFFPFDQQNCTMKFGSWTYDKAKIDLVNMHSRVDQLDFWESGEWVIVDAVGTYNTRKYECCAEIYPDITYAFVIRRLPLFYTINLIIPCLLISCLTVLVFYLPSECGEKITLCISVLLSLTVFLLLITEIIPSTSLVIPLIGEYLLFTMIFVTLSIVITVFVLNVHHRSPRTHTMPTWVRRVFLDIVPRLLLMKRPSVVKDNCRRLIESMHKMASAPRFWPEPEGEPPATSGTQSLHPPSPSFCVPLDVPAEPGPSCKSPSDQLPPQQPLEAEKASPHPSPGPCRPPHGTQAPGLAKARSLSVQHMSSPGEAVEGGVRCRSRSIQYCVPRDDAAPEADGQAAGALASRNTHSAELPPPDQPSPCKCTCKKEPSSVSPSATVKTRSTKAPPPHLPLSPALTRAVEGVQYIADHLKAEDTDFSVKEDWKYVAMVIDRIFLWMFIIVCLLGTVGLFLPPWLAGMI

D(1A) dopamine receptor = D(1A) dopamine receptor (Homo sapiens, UniProt P21728); type: functional, cell-based
[4] = target: Gamma-aminobutyric acid receptor subunit alpha-1 (Rattus norvegicus, UniProt P62813); type: functional
Chain of Gamma-aminobutyric acid receptor subunit alpha-1 (P62813 whole entry): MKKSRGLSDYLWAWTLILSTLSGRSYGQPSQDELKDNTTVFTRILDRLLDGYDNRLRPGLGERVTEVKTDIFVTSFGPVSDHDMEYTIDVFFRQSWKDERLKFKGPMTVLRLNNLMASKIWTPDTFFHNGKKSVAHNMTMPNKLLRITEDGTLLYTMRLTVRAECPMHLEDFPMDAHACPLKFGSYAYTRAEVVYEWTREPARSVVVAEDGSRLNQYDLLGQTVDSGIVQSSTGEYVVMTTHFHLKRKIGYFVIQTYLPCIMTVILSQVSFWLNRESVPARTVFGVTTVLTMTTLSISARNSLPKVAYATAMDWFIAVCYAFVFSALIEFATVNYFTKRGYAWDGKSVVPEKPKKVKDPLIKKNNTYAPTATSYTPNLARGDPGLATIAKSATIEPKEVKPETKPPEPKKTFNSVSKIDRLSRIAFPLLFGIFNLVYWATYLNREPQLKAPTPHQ

[5] = target: Growth hormone secretagogue receptor type 1 (Homo sapiens, UniProt Q92847)
Chain of Growth hormone secretagogue receptor type 1 (Q92847 whole entry): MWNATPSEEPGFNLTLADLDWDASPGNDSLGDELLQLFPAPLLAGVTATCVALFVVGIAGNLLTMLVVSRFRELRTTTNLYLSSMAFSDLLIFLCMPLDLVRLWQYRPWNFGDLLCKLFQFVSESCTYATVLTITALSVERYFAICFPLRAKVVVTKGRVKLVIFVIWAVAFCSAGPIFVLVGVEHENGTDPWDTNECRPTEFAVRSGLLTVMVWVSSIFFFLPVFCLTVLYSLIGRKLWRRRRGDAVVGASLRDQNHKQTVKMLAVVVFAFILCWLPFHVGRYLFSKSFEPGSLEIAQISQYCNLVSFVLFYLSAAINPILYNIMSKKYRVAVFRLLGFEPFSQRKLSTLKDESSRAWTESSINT

[6] = target: 5-hydroxytryptamine receptor 2B (Homo sapiens, UniProt P41595); type: functional, cell-based
Chain of 5-hydroxytryptamine receptor 2B (P41595 whole entry): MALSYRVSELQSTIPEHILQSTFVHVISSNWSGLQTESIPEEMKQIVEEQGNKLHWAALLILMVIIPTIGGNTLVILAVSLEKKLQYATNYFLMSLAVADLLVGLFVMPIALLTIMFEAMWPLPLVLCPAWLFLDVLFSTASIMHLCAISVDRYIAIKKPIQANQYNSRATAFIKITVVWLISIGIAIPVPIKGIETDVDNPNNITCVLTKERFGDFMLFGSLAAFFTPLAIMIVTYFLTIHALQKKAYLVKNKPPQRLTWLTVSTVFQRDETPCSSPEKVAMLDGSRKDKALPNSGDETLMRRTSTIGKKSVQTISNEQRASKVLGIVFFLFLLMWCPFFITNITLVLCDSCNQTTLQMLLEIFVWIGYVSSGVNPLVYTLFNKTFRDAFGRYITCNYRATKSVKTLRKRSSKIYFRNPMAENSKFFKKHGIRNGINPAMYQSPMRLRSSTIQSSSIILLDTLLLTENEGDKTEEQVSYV

Melanocortin receptor 3 = Melanocortin receptor 3 (Homo sapiens, UniProt P41968)
Motilin receptor = Motilin receptor (Homo sapiens, UniProt O43193)
Chain of Motilin receptor (O43193 whole entry): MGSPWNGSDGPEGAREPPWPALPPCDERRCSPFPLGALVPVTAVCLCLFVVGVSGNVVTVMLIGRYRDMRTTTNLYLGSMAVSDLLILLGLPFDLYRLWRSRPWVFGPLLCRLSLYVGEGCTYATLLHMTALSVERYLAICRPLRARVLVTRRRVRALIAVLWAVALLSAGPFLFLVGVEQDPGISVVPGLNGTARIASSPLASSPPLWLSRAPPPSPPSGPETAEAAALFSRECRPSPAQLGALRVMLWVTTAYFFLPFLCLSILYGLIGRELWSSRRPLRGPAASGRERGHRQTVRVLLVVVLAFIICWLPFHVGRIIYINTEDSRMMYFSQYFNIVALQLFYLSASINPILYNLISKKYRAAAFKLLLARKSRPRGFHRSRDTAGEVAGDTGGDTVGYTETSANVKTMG

[7] = target: Delta-type opioid receptor (Homo sapiens, UniProt P41143)
Chain of Delta-type opioid receptor (P41143 whole entry): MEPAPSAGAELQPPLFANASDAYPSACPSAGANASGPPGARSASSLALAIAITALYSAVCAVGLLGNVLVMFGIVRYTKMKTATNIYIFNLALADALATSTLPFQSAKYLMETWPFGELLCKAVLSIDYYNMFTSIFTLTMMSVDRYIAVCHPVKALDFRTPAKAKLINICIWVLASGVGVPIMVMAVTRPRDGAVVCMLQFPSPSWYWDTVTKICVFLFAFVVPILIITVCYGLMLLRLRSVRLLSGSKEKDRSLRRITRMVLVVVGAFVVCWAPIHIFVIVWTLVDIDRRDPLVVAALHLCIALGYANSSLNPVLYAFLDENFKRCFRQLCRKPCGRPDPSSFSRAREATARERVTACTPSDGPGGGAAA

[8] = target: 3',5'-cyclic-AMP phosphodiesterase 4D (Homo sapiens, UniProt Q08499); type: functional
[9] = target: T3, Prostaglandin G/H synthase 1 (Rattus norvegicus, UniProt Q63921); type: functional
T3 sequence (Q63921 whole entry): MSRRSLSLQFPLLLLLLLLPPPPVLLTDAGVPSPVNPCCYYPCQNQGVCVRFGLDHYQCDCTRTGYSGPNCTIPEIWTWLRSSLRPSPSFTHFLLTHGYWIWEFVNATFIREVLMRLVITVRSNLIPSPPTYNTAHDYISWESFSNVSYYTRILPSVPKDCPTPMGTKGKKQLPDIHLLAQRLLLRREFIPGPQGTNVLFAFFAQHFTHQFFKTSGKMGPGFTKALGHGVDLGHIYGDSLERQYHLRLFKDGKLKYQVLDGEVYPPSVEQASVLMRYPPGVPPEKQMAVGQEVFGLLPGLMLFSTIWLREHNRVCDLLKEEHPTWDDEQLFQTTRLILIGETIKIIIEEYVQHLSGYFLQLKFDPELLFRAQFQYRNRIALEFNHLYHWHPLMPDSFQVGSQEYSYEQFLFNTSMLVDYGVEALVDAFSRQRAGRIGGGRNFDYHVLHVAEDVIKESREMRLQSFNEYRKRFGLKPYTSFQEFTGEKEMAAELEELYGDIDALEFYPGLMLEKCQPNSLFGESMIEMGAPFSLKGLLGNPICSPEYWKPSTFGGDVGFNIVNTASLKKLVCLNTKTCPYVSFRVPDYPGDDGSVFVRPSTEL

[10] = target: T4, Equilibrative nucleoside transporter 1 (Homo sapiens, UniProt Q99808)
T4 sequence (Q99808 whole entry): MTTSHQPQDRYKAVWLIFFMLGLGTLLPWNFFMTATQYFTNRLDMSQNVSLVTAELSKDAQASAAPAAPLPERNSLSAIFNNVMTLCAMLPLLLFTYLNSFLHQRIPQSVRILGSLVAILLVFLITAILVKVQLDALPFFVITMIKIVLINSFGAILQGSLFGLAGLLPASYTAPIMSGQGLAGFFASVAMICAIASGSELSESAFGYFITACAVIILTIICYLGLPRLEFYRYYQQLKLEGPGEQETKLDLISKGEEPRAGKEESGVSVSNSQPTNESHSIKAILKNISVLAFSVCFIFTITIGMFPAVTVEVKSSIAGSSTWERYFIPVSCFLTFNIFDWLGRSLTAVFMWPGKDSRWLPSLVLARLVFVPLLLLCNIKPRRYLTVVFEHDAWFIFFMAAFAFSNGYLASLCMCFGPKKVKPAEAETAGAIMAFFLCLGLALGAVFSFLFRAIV

[11] = target: Sodium-dependent noradrenaline transporter (Homo sapiens, UniProt P23975)
[12] = target: cGMP-inhibited 3',5'-cyclic phosphodiesterase 3A (Homo sapiens, UniProt Q14432); type: functional
Chain of cGMP-inhibited 3',5'-cyclic phosphodiesterase 3A (Q14432 whole entry): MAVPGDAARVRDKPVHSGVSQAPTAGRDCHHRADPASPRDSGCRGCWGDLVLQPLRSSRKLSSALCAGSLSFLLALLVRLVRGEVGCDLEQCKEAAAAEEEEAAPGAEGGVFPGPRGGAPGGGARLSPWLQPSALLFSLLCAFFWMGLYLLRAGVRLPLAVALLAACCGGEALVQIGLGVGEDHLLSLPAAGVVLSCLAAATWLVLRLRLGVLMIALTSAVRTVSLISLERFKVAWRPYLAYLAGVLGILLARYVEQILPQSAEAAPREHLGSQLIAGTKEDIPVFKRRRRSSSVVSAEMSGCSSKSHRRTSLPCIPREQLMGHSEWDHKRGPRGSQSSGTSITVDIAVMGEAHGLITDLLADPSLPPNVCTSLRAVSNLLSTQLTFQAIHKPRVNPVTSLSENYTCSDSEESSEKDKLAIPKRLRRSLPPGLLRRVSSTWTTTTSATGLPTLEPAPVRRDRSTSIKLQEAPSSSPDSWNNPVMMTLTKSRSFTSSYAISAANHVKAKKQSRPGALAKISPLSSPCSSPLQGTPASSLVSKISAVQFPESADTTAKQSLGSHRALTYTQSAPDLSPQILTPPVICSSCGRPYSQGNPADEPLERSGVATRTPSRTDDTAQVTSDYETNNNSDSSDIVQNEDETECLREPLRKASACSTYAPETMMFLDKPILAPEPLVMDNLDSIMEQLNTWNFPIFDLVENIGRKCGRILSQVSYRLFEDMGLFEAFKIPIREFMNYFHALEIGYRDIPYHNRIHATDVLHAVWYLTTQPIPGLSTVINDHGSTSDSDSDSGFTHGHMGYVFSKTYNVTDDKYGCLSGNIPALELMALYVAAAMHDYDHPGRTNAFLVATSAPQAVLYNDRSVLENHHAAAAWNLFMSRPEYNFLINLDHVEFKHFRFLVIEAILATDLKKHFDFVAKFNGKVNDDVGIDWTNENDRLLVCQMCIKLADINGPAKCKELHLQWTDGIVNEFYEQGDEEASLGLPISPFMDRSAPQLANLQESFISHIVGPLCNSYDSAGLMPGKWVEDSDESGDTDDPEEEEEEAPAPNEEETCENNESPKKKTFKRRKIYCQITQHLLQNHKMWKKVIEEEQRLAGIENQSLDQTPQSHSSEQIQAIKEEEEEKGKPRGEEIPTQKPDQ

D(3) dopamine receptor = D(3) dopamine receptor (Homo sapiens, UniProt P35462)
Further: assay procedure not described here.

Chain of Adenosine receptor A2a (P29274 whole entry): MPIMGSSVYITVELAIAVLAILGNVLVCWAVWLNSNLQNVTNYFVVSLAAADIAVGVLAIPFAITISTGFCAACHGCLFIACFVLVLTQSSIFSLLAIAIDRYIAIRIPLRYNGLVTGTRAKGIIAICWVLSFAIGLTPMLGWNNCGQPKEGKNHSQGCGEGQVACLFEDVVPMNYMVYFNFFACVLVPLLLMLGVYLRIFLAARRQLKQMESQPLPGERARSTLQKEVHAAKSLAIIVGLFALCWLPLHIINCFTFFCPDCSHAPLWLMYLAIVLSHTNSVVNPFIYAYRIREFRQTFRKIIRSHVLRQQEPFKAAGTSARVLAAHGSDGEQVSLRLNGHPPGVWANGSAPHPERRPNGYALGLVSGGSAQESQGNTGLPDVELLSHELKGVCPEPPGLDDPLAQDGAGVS

Structure (SMILES) | AC50 (Adenosine receptor A2a) [µM] | AC50 [1] [µM] | AC50 (Vasopressin V1a receptor) [µM] | AC50 [2] [µM] | AC50 [3] [µM] | AC50 (D(1A) dopamine receptor) [µM] | AC50 [4] [µM] | AC50 [5] [µM] | AC50 [6] [µM] | AC50 (Melanocortin receptor 3) [µM] | AC50 (Motilin receptor) [µM] | AC50 [7] [µM] | AC50 [8] [µM] | AC50 [9] [µM] | AC50 [10] [µM] | AC50 [11] [µM] | AC50 [12] [µM] | AC50 (D(3) dopamine receptor) [µM]
CC[C@H]1OC(=O)[C@H](C)[C@@H](O[C@H]2C[C@@](C)(OC)[C@@H](O)[C@H](C)O2)[C@H](C)[C@@H](O[C@@H]2O[C@H](C)C[C@H](N(C)C)[C@H]2O)[C@](C)(O)C[C@@H](C)CN(C)[C@H](C)[C@@H](O)[C@]1(C)O [AZITHROMYCIN] | > 30 | > 10 | > 10 | > 30 | > 10 | > 10 | > 10 | > 30 | > 10 | > 30 | > 10 | > 10 | > 30 | > 30 | > 30 | > 10 | > 30 | > 10
NCC(CC(=O)O)c1ccc(Cl)cc1 (stereo not drawn) [BACLOFEN] | > 30 | > 30 | > 30 | > 30 | > 30 | > 30 | > 30 | > 30 | > 30 | > 30 | > 30 | > 30 | > 30 | > 30 | > 30 | > 30 | > 30 | > 30
CN1C(=O)CCS(=O)(=O)C1c1ccc(Cl)cc1 (stereo not drawn) [CHLORMEZANONE] | > 10 | > 10 | > 10 | > 10 | > 10 | > 10 | > 10 | > 10 | > 10 | > 10 | > 10 | > 30 | > 30 | > 10 | > 10 | > 10 | > 30 | > 30
CN(C)CCC(c1ccc(Cl)cc1)c1ccccn1 (stereo not drawn) [CHLORPHENIRAMINE] | > 30 | > 10 | > 10 | > 30 | > 10 | > 10 | > 10 | > 30 | > 10 | > 30 | > 10 | > 10 | > 10 | > 30 | > 30 | 7.7 | > 10 | > 10
O=C1Nc2ccc(Cl)cc2[C@@](C#CC2CC2)(C(F)(F)F)O1 [EFAVIRENZ] | > 30 | > 10 | > 30 | > 30 | > 30 | > 30 | > 10 | > 30 | > 10 | > 30 | > 30 | > 30 | 15 | > 30 | > 30 | 15 | 24 | > 30
O=C(OCC(O)CO)c1ccccc1Nc1ccnc2cc(Cl)ccc12 (stereo not drawn) [GLAFENINE] | 23 | > 30 | > 30 | > 30 | > 30 | > 30 | 0.046 | > 30 | > 30 | > 30 | 28 | > 30 | 0.17 | > 30 | 8.1 | > 30 | > 30 | > 30
C[C@]12CCC(=O)C=C1CC[C@@H]1[C@@H]2[C@@H](O)C[C@@]2(C)[C@H]1CC[C@]2(O)C(=O)CO [HYDROCORTISONE] | > 30 | > 10 | > 10 | > 30 | > 10 | > 10 | > 10 | > 30 | > 10 | > 30 | > 10 | > 30 | > 30 | > 30 | > 30 | > 10 | > 30 | > 10
CCC(C)n1ncn(-c2ccc(N3CCN(c4ccc(OCC5COC(Cn6cncn6)(c6ccc(Cl)cc6Cl)O5)cc4)CC3)cc2)c1=O (stereo not drawn) [ITRACONAZOLE] | > 30 | > 30 | > 30 | > 30 | > 30 | > 30 | > 30 | > 30 | > 30 | > 30 | > 30 | > 30 | 18 | > 30 | > 30 | > 30 | > 30 | > 30
c1ccc([C@H]2CN3CCSC3=N2)cc1 [LEVAMISOLE] | > 30 | > 30 | > 30 | > 30 | > 30 | 1.6 | > 30 | > 30 | > 30 | > 30 | > 30 | > 30 | > 30 | > 30 | > 30 | > 30 | > 30 | > 30
CN1C(C(=O)Nc2ccccn2)=C(O)c2sc(Cl)cc2S1(=O)=O [LORNOXICAM] | > 30 | > 10 | > 30 | > 30 | > 10 | > 10 | > 10 | > 30 | > 10 | > 30 | > 10 | > 30 | > 30 | 22 | > 30 | > 30 | > 30 | > 30
Cc1cccc(Nc2ccccc2C(=O)O)c1C [MEFENAMIC ACID] | > 10 | > 10 | > 10 | > 10 | > 10 | > 10 | > 10 | > 10 | > 10 | > 10 | > 10 | > 30 | > 30 | 0.26 | > 10 | > 10 | > 30 | > 30
